Assay type in all cases: functional, Homo sapiens
Test [1] has as its system MCF7. The test is described as follows: Antiproliferative activity on MCF-7 Cell Growth was determined by measuring [3H]thymidine incorporation at the concentration of 0.1 nM. In general terms: Incorporation of labelled thymidine or its analogues reports DNA synthesis.
Test [2] has as its system MCF7. The test is described as follows: Antiproliferative activity on MCF-7 Cell Growth was determined by measuring [3H]thymidine incorporation at the concentration of 10 nM.
Test [3] deals with MCF7. The test can be described thus: Antiproliferative activity on MCF-7 Cell Growth was determined by measuring [3H]thymidine incorporation at the concentration of 1 uM.

With `COc1cc(C)c(/C=C/C(C)=C/C=C/C(C)=C/C(=O)NC2OC(CO)C(O)C(O)C2O)c(C)c1C` (centres undefined), the figures for the Control in the test on MCF7 [1], in the test on MCF7 [2] and with MCF7 [3] were greater than 50%, greater than 100% and greater than 100%, respectively.

Consider `COc1cc(C)c(/C=C/C(C)=C/C=C/C(C)=C/C(=O)NC2OC(C(=O)O)C(O)C(O)C2O)c(C)c1C` (centres undefined), for which the Control is less than 50% in the test with MCF7 [1], greater than 50% in the test with MCF7 [2] and less than 50% in the test on MCF7 [3].

For the molecule `COc1cc(C)c(/C=C/C(C)=C/C=C/C(C)=C/C(=O)O)c(C)c1C` [ACITRETIN], the Control in the test on MCF7 [1] was greater than 50%; in the test with MCF7 [2], greater than 50%; in the test on MCF7 [3], less than 50%.

Values taken from ChEMBL document CHEMBL1129809, “N-linked glycoside/glucuronide conjugates of retinoids: acitretin” (1997).
